Measurements reported in the supplement of paper PMC10307832.

What was measured:
Experiment in all cases: relative viability (nuclei count vs DMSO), 5 days (fraction); higher = more cells survive
HCC-44 = tested on: HCC-44
Summary of the method: (§1)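 Relative viability divides the nuclei count in treated wells by that in vehicle wells. Lung cancer cell lines were seeded in 1536-well plates, dosed by pin tool the next day, and fixed and stained after 5 days in one step with final 0.05% Triton X-100, 1% formaldehyde and 1 ug/ml Hoechst. Dosing was a single drug or a fixed anchor-drug dose plus five library-drug doses (not always all listed) in √10 steps, and values are medians of duplicate plates imaged at 4×.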

NCI-H1650 = tested on: NCI-H1650
Summary of the method: as §1

NCI-H1944 = tested on: NCI-H1944
Summary of the method: as §1

PC-3 [JPC-3] = tested on: PC-3 [JPC-3]
Summary of the method: as §1

H3255 = tested on: H3255
Summary of the method: as §1

NCI-H23 = tested on: NCI-H23
Summary of the method: as §1

COR-L23 = tested on: COR-L23
Summary of the method: as §1

PC-14 = tested on: PC-14
Summary of the method: as §1

NCI-H2347 = tested on: NCI-H2347
Summary of the method: as §1

SW 900 = tested on: SW 900
Summary of the method: as §1

LK-2 = tested on: LK-2
Summary of the method: as §1

NCI-H838 = tested on: NCI-H838
Summary of the method: as §1

LU99A = tested on: LU99A
Summary of the method: as §1

NCI-H650 = tested on: NCI-H650
Summary of the method: as §1

NCI-H1563 = tested on: NCI-H1563
Summary of the method: as §1

SW 1573 = tested on: SW 1573
Summary of the method: as §1

LCLC-103H = tested on: LCLC-103H
Summary of the method: as §1

NCI-H727 = tested on: NCI-H727
Summary of the method: as §1

NCI-H460 = tested on: NCI-H460
Summary of the method: as §1

LCLC-97TM1 = tested on: LCLC-97TM1
Summary of the method: as §1

A-427 = tested on: A-427
Summary of the method: as §1

NCI-H1793 = tested on: NCI-H1793
Summary of the method: as §1

201T = tested on: 201T
Summary of the method: as §1

O=C(O)c1ccc(-c2c[nH]c3ncc(-c4ccccc4)cc23)cc1C1CCCC1 + N=C(N)NC(=N)NCCc1ccccc1 [Phenformin] (partner 250 µM)
relative viability (HCC-44; first compound 0.04 µM): 0.198 | relative viability (HCC-44; first compound 0.1265 µM): 0.295 | relative viability (HCC-44; first compound 0.4 µM): 0.224 | relative viability (HCC-44; first compound 1.265 µM): 0.141 | relative viability (NCI-H1650; first compound 0.04 µM): 0.469 | relative viability (NCI-H1650; first compound 0.1265 µM): 0.472 | relative viability (NCI-H1650; first compound 0.4 µM): 0.338 | relative viability (NCI-H1650; first compound 1.265 µM): 0.2 | relative viability (NCI-H1944; first compound 0.04 µM): 0.191 | relative viability (NCI-H1944; first compound 0.1265 µM): 0.214 | relative viability (NCI-H1944; first compound 0.4 µM): 0.194 | relative viability (NCI-H1944; first compound 1.265 µM): 0.172 | relative viability (PC-3 [JPC-3]; first compound 0.04 µM): 0.475 | relative viability (PC-3 [JPC-3]; first compound 0.1265 µM): 0.501 | relative viability (PC-3 [JPC-3]; first compound 0.4 µM): 0.468 | relative viability (PC-3 [JPC-3]; first compound 1.265 µM): 0.436 | relative viability (H3255; first compound 0.04 µM): 0.343 | relative viability (H3255; first compound 0.1265 µM): 0.354 | relative viability (H3255; first compound 0.4 µM): 0.39 | relative viability (H3255; first compound 1.265 µM): 0.372 | relative viability (NCI-H23; first compound 0.04 µM): 0.776 | relative viability (NCI-H23; first compound 0.1265 µM): 0.902 | relative viability (NCI-H23; first compound 0.4 µM): 0.814 | relative viability (NCI-H23; first compound 1.265 µM): 0.613 | relative viability (COR-L23; first compound 0.04 µM): 0.424 | relative viability (COR-L23; first compound 0.1265 µM): 0.507 | relative viability (COR-L23; first compound 0.4 µM): 0.437 | relative viability (COR-L23; first compound 1.265 µM): 0.268 | relative viability (PC-14; first compound 0.04 µM): 0.588 | relative viability (PC-14; first compound 0.1265 µM): 0.678 | relative viability (PC-14; first compound 0.4 µM): 0.548 | relative viability (PC-14; first compound 1.265 µM): 0.604 | relative viability (NCI-H2347; first compound 0.04 µM): 0.396 | relative viability (NCI-H2347; first compound 0.1265 µM): 0.475 | relative viability (NCI-H2347; first compound 0.4 µM): 0.484 | relative viability (NCI-H2347; first compound 1.265 µM): 0.405 | relative viability (SW 900; first compound 0.04 µM): 0.706 | relative viability (SW 900; first compound 0.1265 µM): 0.615 | relative viability (SW 900; first compound 0.4 µM): 0.654 | relative viability (SW 900; first compound 1.265 µM): 0.381 | relative viability (LK-2; first compound 0.04 µM): 0.733 | relative viability (LK-2; first compound 0.1265 µM): 0.699 | relative viability (LK-2; first compound 0.4 µM): 0.377 | relative viability (LK-2; first compound 1.265 µM): 0.367 | relative viability (NCI-H838; first compound 0.04 µM): 0.542 | relative viability (NCI-H838; first compound 0.1265 µM): 0.655 | relative viability (NCI-H838; first compound 0.4 µM): 0.596 | relative viability (NCI-H838; first compound 1.265 µM): 0.511 | relative viability (LU99A; first compound 0.04 µM): 0.961 | relative viability (LU99A; first compound 0.1265 µM): 0.784 | relative viability (LU99A; first compound 0.4 µM): 0.865 | relative viability (LU99A; first compound 1.265 µM): 0.606 | relative viability (NCI-H650; first compound 0.04 µM): 0.42 | relative viability (NCI-H650; first compound 0.1265 µM): 0.494 | relative viability (NCI-H650; first compound 0.4 µM): 0.448 | relative viability (NCI-H650; first compound 1.265 µM): 0.399 | relative viability (NCI-H1563; first compound 0.04 µM): 0.679 | relative viability (NCI-H1563; first compound 0.1265 µM): 0.679 | relative viability (NCI-H1563; first compound 0.4 µM): 0.634 | relative viability (NCI-H1563; first compound 1.265 µM): 0.654 | relative viability (SW 1573; first compound 0.04 µM): 0.38 | relative viability (SW 1573; first compound 0.1265 µM): 0.35 | relative viability (SW 1573; first compound 0.4 µM): 0.276 | relative viability (SW 1573; first compound 1.265 µM): 0.299 | relative viability (LCLC-103H; first compound 0.04 µM): 0.369 | relative viability (LCLC-103H; first compound 0.1265 µM): 0.34 | relative viability (LCLC-103H; first compound 0.4 µM): 0.389 | relative viability (LCLC-103H; first compound 1.265 µM): 0.371 | relative viability (NCI-H727; first compound 0.04 µM): 0.464 | relative viability (NCI-H727; first compound 0.1265 µM): 0.684 | relative viability (NCI-H727; first compound 0.4 µM): 0.582 | relative viability (NCI-H727; first compound 1.265 µM): 0.509 | relative viability (NCI-H460; first compound 0.04 µM): 0.536 | relative viability (NCI-H460; first compound 0.1265 µM): 0.526 | relative viability (NCI-H460; first compound 0.4 µM): 0.507 | relative viability (NCI-H460; first compound 1.265 µM): 0.46 | relative viability (LCLC-97TM1; first compound 0.04 µM): 0.475 | relative viability (LCLC-97TM1; first compound 0.1265 µM): 0.435 | relative viability (LCLC-97TM1; first compound 0.4 µM): 0.5 | relative viability (LCLC-97TM1; first compound 1.265 µM): 0.399 | relative viability (A-427; first compound 0.04 µM): 0.317 | relative viability (A-427; first compound 0.1265 µM): 0.446 | relative viability (A-427; first compound 0.4 µM): 0.304 | relative viability (A-427; first compound 1.265 µM): 0.264 | relative viability (NCI-H1793; first compound 0.04 µM): 0.404 | relative viability (NCI-H1793; first compound 0.1265 µM): 0.494 | relative viability (NCI-H1793; first compound 0.4 µM): 0.374 | relative viability (NCI-H1793; first compound 1.265 µM): 0.365 | relative viability (201T; first compound 0.04 µM): 0.477 | relative viability (201T; first compound 0.1265 µM): 0.45 | relative viability (201T; first compound 0.4 µM): 0.456 | relative viability (201T; first compound 1.265 µM): 0.437
